In patent US20120040951A1, “HETEROARYL COMPOUNDS USEFUL AS RAF KINASE INHIBITORS” (priority 2008, published 2012):

Tests used:
[1] = target: V599E Raf (Homo sapiens, UniProt P15056, V600E); experiment: Biochemical FRET assay, mutant Raf (phosphorylation of MEK); details: 0.125 nM V599E Raf, 100 nM biotin-MEK, 25 μM ATP, read-out: Raf (mut) inhibition
Protocol: (1) Biochemical FRET Assay […]
Inhibitors were diluted 4-fold in 100% DMSO and added to a final concentration of 10 μM to 40 μM to a solution containing 100 nM biotin-MEK, 0.125 nM V599E Raf in 50 mM HEPES, pH 7.4, 60 mM NaCl, 3 mM MgCl2, 2 mM DTT, 0.25 mM MnCl2, 0.01% BSA, and 0.01% Tween-20 and incubated for 20 minutes at room temperature. The kinase reaction was started by the addition of 25 μM ATP to a final volume of 45 μl and allowed to progress for 60 minutes. The reaction was stopped with 15 mM EDTA and 20 nM Streptavidin-APC, 2.5 nM Polyclonal anti p-MEK1/2 (Ser217/221), 2.5 nM Eu-labeled anti-rabbit IgG were added in Lance detection buffer and 5% Superblock in PBS for a final volume of 100 μl. The detection reaction was incubated for 90 minutes at room temperature and then read on an Analyst plate reader using standard TR-FRET (time resolved fluorescence resonance energy transfer) settings for Eu and APC.
Compounds having an activity designated as “A” provided an IC50≦100 nM; compounds having an activity designated as “B” provided an IC50 of 100-1000 nM; and compounds having an activity designated as “C” provided an IC50 of 1000-10,000 nM.

[2] = tested on: phospho-ERK in melanoma derived WM-266-4 cells; experiment: Mechanistic cellular assay for Raf kinase activity (phospho-ERK, Bio-Plex); format: cell-based; details: Homo sapiens, treated 1-2 hr at 37° C., serum free medium, read-out: pERK EC50
In short: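 WM-266-4 melanoma cells (wild-type/V600D BRaf) grown overnight in 10% FBS RPMI, then treated 1–2 h at 37 °C in serum-free RPMI with eight 3-fold dilutions of compound (from 5 mM DMSO stock, 1000× dilution). Lysate phospho-ERK1,2 quantified by Bio-Plex bead immunoassay.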

Sequence of V599E Raf (P15056 whole entry V600E): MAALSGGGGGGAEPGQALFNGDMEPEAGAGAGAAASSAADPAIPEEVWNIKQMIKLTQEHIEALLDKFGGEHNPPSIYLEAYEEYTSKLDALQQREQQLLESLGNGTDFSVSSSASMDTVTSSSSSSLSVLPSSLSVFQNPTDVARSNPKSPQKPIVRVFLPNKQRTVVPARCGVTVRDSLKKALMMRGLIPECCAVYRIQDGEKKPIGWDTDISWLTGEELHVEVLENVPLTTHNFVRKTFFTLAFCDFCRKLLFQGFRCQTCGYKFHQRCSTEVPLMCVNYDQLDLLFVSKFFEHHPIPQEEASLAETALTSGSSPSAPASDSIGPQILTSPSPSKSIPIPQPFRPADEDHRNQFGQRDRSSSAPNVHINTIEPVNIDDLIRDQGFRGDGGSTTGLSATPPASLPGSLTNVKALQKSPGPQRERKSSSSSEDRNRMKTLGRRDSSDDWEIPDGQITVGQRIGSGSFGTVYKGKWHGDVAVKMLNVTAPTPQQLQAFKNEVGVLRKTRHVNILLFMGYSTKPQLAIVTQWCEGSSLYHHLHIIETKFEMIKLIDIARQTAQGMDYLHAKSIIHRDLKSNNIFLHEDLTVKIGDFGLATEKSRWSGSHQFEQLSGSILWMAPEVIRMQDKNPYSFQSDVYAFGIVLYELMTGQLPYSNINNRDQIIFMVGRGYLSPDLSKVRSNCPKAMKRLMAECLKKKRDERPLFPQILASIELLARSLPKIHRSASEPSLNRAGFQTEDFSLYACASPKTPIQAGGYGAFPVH

IC50 [1] [nM] | EC50 [2] [nM] | Structure (SMILES)
100 to 1000 | 100 to 1000 | Cc1cc2nc(NC(=O)c3cc([C@@H](C)NC(=O)c4cnn5ccccc45)no3)[nH]c2cc1C [Example 219]
≤ 100 | ≤ 100 | CCn1cnc2cnc(C(=O)NC(C)c3cnc(Nc4ccc(C(F)(F)F)cc4)s3)cc21 (stereo not shown) [Example 6]
≤ 100 | ≤ 100 | COc1nc(C(C)(C)C)ncc1Nc1ncc(C(C)NC(=O)c2cc3c(cn2)ncn3C)s1 (stereo not shown) [Example 270]
≤ 100 | ≤ 100 | C[C@@H](NC(=O)c1cn2c(Br)cnc2cn1)c1cnc(Nc2ccc(C(F)(F)F)cc2)s1 [Example 298]
≤ 100 | 100 to 1000 | COC(=O)c1cc(Nc2ncc(C(C)NC(=O)c3cc4c(cn3)ncn4C)s2)cc(C(C)(C)C)c1 (stereo not shown) [Example 351]
≤ 100 | 1000 to 10000 | C[C@@H](NC(=O)c1cn(-c2ccncc2)cn1)c1ncc(C(=O)Nc2cc(C(F)(F)F)c(Cl)cn2)s1 [Example 148]
≤ 100 | 100 to 1000 | C[C@@H](NC(=O)c1cc2c(cn1)ncn2CCS(C)(=O)=O)c1cnc(Nc2ccc(C(F)(F)F)cc2)s1 [Example 185]
≤ 100 | ≤ 100 | Cc1ccc(NC(=O)c2cc([C@@H](C)NC(=O)c3cnn4ccccc34)no2)cc1C(F)(F)F [Example 218]
≤ 100 | 1000 to 10000 | CC(NC(=O)c1cn2c(C(F)(F)F)cnc2cn1)c1cnc(Nc2ccc(C(F)(F)F)cc2)s1 (stereo not shown) [Example 300]
100 to 1000 | 1000 to 10000 | CC(NC(=O)c1cc2c(cn1)ncn2C)c1cnc(Nc2cc(C(=O)O)cc(C(C)(C)C)c2)s1 (stereo not shown) [Example 352]
≤ 100 | 100 to 1000 | CNC(=O)Cn1cnc2cnc(C(=O)NC(C)c3cnc(Nc4ccc(C(F)(F)F)cc4)s3)cc21 (stereo not shown) [Example 356]
≤ 100 | 1000 to 10000 | C[C@@H](NC(=O)c1cnc(N2CCN(C)CC2)s1)c1ncc(C(=O)Nc2cc(C(F)(F)F)c(Cl)cn2)s1 [Example 106]
≤ 100 | ≤ 100 | C[C@@H](NC(=O)c1ccc2ncccc2c1)c1ncc(C(=O)Nc2cc(C(F)(F)F)c(Cl)cn2)s1 [Example 58]
≤ 100 | 100 to 1000 | CC(NC(=O)c1cc2c(cn1)ncn2C)c1cnc(Nc2ccc(C(F)(F)F)nc2Cl)s1 (stereo not shown) [Example 263]
100 to 1000 | 1000 to 10000 | C[C@@H](NC(=O)c1cccc(Br)n1)c1ncc(C(=O)Nc2cc(C(F)(F)F)c(Cl)cn2)s1 [Example 91]
≤ 100 | 1000 to 10000 | C[C@H](NC(=O)c1cc2c(cn1)ncn2C)c1cnc(Nc2ccc(C(F)(F)F)cc2)s1 [Example 3]
≤ 100 | 100 to 1000 | CCN1CC(n2cnc3cnc(C(=O)N[C@H](C)c4cnc(Nc5ccc(C(F)(F)F)cc5)cn4)cc32)C1 (stereo in doubt) [Example 180]
≤ 100 | 1000 to 10000 | CC(NC(=O)c1cc2c(cn1)ncn2C(CO)CO)c1cnc(Nc2ccc(C(F)(F)F)cc2)s1 (stereo not shown) [Example 32]
≤ 100 | 100 to 1000 | CNc1nc(C(C)(C)C)ncc1Nc1ncc(C(C)NC(=O)c2cc3c(cn2)ncn3C)s1 (stereo not shown) [Example 280]
≤ 100 | 1000 to 10000 | C[C@@H](NC(=O)c1csc(-c2ccncc2)n1)c1ncc(C(=O)Nc2cc(C(F)(F)F)c(Cl)cn2)s1 [Example 97]
≤ 100 | 1000 to 10000 | Cc1nc2cc(C(=O)N[C@H](C)c3ncc(C(=O)Nc4cc(C(F)(F)F)c(Cl)cn4)s3)ccc2n1CCO [Example 52]
≤ 100 | 1000 to 10000 | Cc1ncoc1C(=O)N[C@H](C)c1ncc(C(=O)Nc2cc(C(F)(F)F)c(Cl)cn2)s1 [Example 103]
≤ 100 | 100 to 1000 | Cc1c(C(=O)NC(C)c2cnc(Nc3ccc(C(F)(F)F)cc3)s2)cnn1C (stereo not shown) [Example 82]
100 to 1000 | 1000 to 10000 | C[C@@H](NC(=O)c1cnc2n1CCN(C)C2)c1ncc(C(=O)Nc2cc(C(F)(F)F)c(Cl)cn2)s1 [Example 317]
100 to 1000 | 100 to 1000 | C[C@@H](NC(=O)c1cnn(C)c1CNCCF)c1ncc(C(=O)Nc2cc(C(F)(F)F)c(Cl)cn2)s1 [Example 131]
≤ 100 | 100 to 1000 | CCN1CC[C@H](n2cnc3cnc(C(=O)N[C@@H](C)c4cnc(Nc5ccc(C(F)(F)F)cc5)s4)cc32)C1 [Example 33]
100 to 1000 | 1000 to 10000 | C[C@@H](NC(=O)c1ccc2ncccc2c1)c1cc(C(=O)Nc2cnc(C(C)(C)C)nc2N)no1 [Example 65]

IC50 [1] [nM] | EC50 [2] [nM] | Structure (SMILES)
≤ 100 | 1000 to 10000 | Cc1nc(Nc2ccc(C(F)(F)F)cc2)sc1C(C)NC(=O)c1cc2c(cn1)ncn2C (stereo not shown) [Example 340]
≤ 100 | ≤ 100 | CC(NC(=O)c1cc2c(cn1)ncn2C)c1cnc(Nc2cccc(S(=O)(=O)C(F)(F)F)c2)cn1 (stereo not shown) [Example 243]
≤ 100 | 100 to 1000 | CC(NC(=O)c1ncc2ncn(C)c2n1)c1cnc(Nc2ccc(C(F)(F)F)cc2)s1 (stereo not shown) [Example 190]
≤ 100 | 100 to 1000 | C[C@@H](NC(=O)c1cc2c(cn1)ncn2C1CNC1)c1cnc(Nc2ccc(C(F)(F)F)cc2)s1 [Example 27]
≤ 100 | ≤ 100 | C[C@@H](NC(=O)c1cc2c(cn1)ncn2C1CCC1)c1cnc(Nc2ccc(C(F)(F)F)cc2)cn1 (single isomer, unassigned) [Example 188]
≤ 100 | ≤ 100 | CC(NC(=O)c1cc2nc[nH]c2cn1)c1ncc(C(=O)Nc2cc(C(F)(F)F)c(Cl)cn2)s1 (stereo not shown) [Example 77]
≤ 100 | 100 to 1000 | CC(NC(=O)c1cn2c(Cl)cnc2cn1)c1cnc(Nc2ccc(C(F)(F)F)cc2)s1 (stereo not shown) [Example 299]
100 to 1000 | 100 to 1000 | C[C@@H](NC(=O)c1cnn(C)c1CN1CCCCC1)c1ncc(C(=O)Nc2cc(C(F)(F)F)c(Cl)cn2)s1 [Example 128]
≤ 100 | ≤ 100 | CC(NC(=O)c1cnn2cc(-c3cccnc3)ccc12)c1ncc(C(=O)Nc2cc(C(F)(F)F)c(Cl)cn2)s1 (stereo not shown) [Example 320]
100 to 1000 | 100 to 1000 | C[C@@H](NC(=O)c1cnn(C)c1CNC1CC1)c1ncc(C(=O)Nc2cc(C(F)(F)F)c(Cl)cn2)s1 [Example 133]
≤ 100 | 100 to 1000 | CC(NC(=O)c1cc2c(cn1)ncn2C)c1ccc(Nc2ccc(C(F)(F)F)cc2)nc1 (stereo not shown) [Example 339]
≤ 100 | 100 to 1000 | CC(NC(=O)c1cc2nc[nH]c2cn1)c1cnc(Nc2ccc(C(F)(F)F)cc2)s1 (stereo not shown) [Example 5]
≤ 100 | 1000 to 10000 | C[C@@H](NC(=O)c1ccc2[nH]nnc2c1)c1ncc(C(=O)Nc2cc(C(F)(F)F)c(Cl)cn2)s1 [Example 57]
≤ 100 | 1000 to 10000 | CC(NC(=O)c1cnc2ncccn12)c1cnc(Nc2ccc(C(F)(F)F)cc2)s1 (stereo not shown) [Example 310]
≤ 100 | ≤ 100 | C[C@H](NC(=O)c1cc2c(cn1)ncn2C)c1cnc(Nc2ccc(C(F)(F)F)nc2)s1 (single isomer, unassigned) [Example 267]
≤ 100 | ≤ 100 | CC(NC(=O)c1cc2c(cn1)ncn2C)c1cnc(Nc2cc(S(=O)(=O)C(F)(F)F)ccc2Cl)cn1 (stereo not shown) [Example 276]
100 to 1000 | 1000 to 10000 | CC(=O)Nc1cccc(C(=O)N[C@H](C)c2ncc(C(=O)Nc3cc(C(F)(F)F)c(Cl)cn3)s2)n1 [Example 93]
≤ 100 | ≤ 100 | CC(NC(=O)c1cc2c(cn1)ncn2C)c1cnc(Nc2ccc(C(F)(F)F)cc2)s1 (stereo not shown) [Example 2]
≤ 100 | 1000 to 10000 | C[C@@H](NC(=O)c1cnn(Cc2ccccc2)c1)c1ncc(C(=O)Nc2cc(C(F)(F)F)c(Cl)cn2)s1 [Example 118]
≤ 100 | 1000 to 10000 | CCN1CCn2c(C(=O)NC(C)c3cnc(Nc4ccc(C(F)(F)F)cc4)s3)cnc2C1 (stereo not shown) [Example 318]
100 to 1000 | 1000 to 10000 | C[C@@H](NC(=O)c1ccc2sccc2c1)c1ncc(C(=O)Nc2cc(C(F)(F)F)c(Cl)cn2)s1 [Example 67]
≤ 100 | 1000 to 10000 | Cc1nc(C)c(C(=O)N[C@H](C)c2ncc(C(=O)Nc3cc(C(F)(F)F)c(Cl)cn3)s2)s1 [Example 101]
100 to 1000 | 1000 to 10000 | C[C@@H](NC(=O)c1ccc2[nH]c(C(F)(F)F)nc2c1)c1ncc(C(=O)Nc2cc(C(F)(F)F)c(Cl)cn2)s1 [Example 62]
≤ 100 | 100 to 1000 | CC(NC(=O)c1cc2c(cn1)ncn2C)c1cnc(Nc2cnc(C(F)(F)F)nc2)s1 (stereo not shown) [Example 261]
≤ 100 | 100 to 1000 | C[C@@H](NC(=O)c1cc2c(cn1)ncn2C1CN(C)C1)c1cnc(Nc2ccc(C(F)(F)F)cc2)s1 [Example 182]
≤ 100 | 100 to 1000 | CC(NC(=O)c1cnn(C)c1N)c1cnc(Nc2ccc(C(F)(F)F)cc2)s1 (stereo not shown) [Example 108]
